System: LG0703-F948-PDC complex spheroid viability
Assay: Anticancer human tumor LG0703-F948-PDC patient-derived lung adenocarcinoma cell line growth inhibition
Conditions: for IC50: curve of first compound; for viability, T/C: stronger effect = lower value
Method in brief: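 Multicellular complex spheroids of tumor cells with human endothelial cells (HUVEC) and mesenchymal stem cells; the LSD1 inhibitor iadademstat was combined with standard-of-care or investigational agents. Top concentration at or near clinical Cmax, half-log dilutions; final DMSO ≤0.25%.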

[1] = second compound 0.1 µM, first compound 0.0316 µM
[2] = second compound 0.1 µM, first compound 0.1 µM
[3] = second compound 0.1 µM, first compound 0.316 µM
[4] = second compound 0.1 µM, first compound 1 µM
[5] = second compound 0.1 µM, first compound 3.16 µM
[6] = second compound 0.1 µM, first compound 10 µM
[7] = second compound 0.316 µM, first compound 0.0316 µM
[8] = second compound 0.316 µM, first compound 0.1 µM
[9] = second compound 0.316 µM, first compound 0.316 µM
[10] = second compound 0.316 µM, first compound 1 µM
[11] = second compound 0.316 µM, first compound 3.16 µM
[12] = second compound 0.316 µM, first compound 10 µM
[13] = second compound 1 µM, first compound 0.0316 µM
[14] = second compound 1 µM, first compound 0.1 µM
[15] = second compound 1 µM, first compound 0.316 µM
[16] = second compound 1 µM, first compound 1 µM
[17] = second compound 1 µM, first compound 3.16 µM
[18] = second compound 1 µM, first compound 10 µM
[19] = second compound 3.16 µM, first compound 0.0316 µM
[20] = second compound 3.16 µM, first compound 0.1 µM
[21] = second compound 3.16 µM, first compound 0.316 µM
[22] = second compound 3.16 µM, first compound 1 µM
[23] = second compound 3.16 µM, first compound 3.16 µM
[24] = second compound 3.16 µM, first compound 10 µM
[25] = second compound 10 µM, first compound 0.0316 µM
[26] = second compound 10 µM, first compound 0.1 µM
[27] = second compound 10 µM, first compound 0.316 µM
[28] = second compound 10 µM, first compound 1 µM
[29] = second compound 10 µM, first compound 3.16 µM
[30] = second compound 10 µM, first compound 10 µM
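Further: spheroids exposed to agents for seven days before readout.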
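Wherever viability, T/C is given: 100% = DMSO vehicle control wells as normalization base.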

| SMILES | IC50 (second compound 0.1 µM) | IC50 (second compound 0.316 µM) | IC50 (second compound 1 µM) | IC50 (second compound 3.16 µM) | IC50 (second compound 10 µM) | viability, T/C [1] | viability, T/C [2] | viability, T/C [3] | viability, T/C [4] | viability, T/C [5] | viability, T/C [6] | viability, T/C [7] | viability, T/C [8] | viability, T/C [9] | viability, T/C [10] | viability, T/C [11] | viability, T/C [12] | viability, T/C [13] | viability, T/C [14] | viability, T/C [15] | other results |
| --- | --- | --- | --- | --- | --- | --- | --- | --- | --- | --- | --- | --- | --- | --- | --- | --- | --- | --- | --- | --- | --- |
| CC1(C)CCC(CN2CCN(c3ccc(C(=O)NS(=O)(=O)c4ccc(NCC5CCOCC5)c([N+](=O)[O-])c4)c(Oc4cnc5[nH]ccc5c4)c3)CC2)=C(c2ccc(Cl)cc2)C1 + NC1CC1c1ccc(-c2cccc(O)c2)cc1 | 2.72 µM | 2.47 µM | 2.64 µM | 2.34 µM | 2.37 µM | 98.2% | 113% | 111% | 98% | 42.8% | 3.56% | 102% | 103% | 100% | 103% | 35.6% | 3% | 106% | 104% | 111% | viability, T/C [16]: 85.6%; viability, T/C [17]: 43.8%; viability, T/C [18]: 5.17%; viability, T/C [19]: 104%; viability, T/C [20]: 81.7%; viability, T/C [21]: 102%; viability, T/C [22]: 111%; viability, T/C [23]: 32.5%; viability, T/C [24]: 3.01%; viability, T/C [25]: 103%; viability, T/C [26]: 104%; viability, T/C [27]: 93.9%; viability, T/C [28]: 86.4%; viability, T/C [29]: 38%; viability, T/C [30]: 3.13% |
| CC1COCCN1c1cc(C2(S(C)(=N)=O)CC2)nc(-c2ccnc3[nH]ccc23)n1 (stereo not given) + NC1CC1c1ccc(-c2cccc(O)c2)cc1 | 5 µM | 4.65 µM | 5.24 µM | 3.55 µM | 3.92 µM | 120% | 104% | 92.9% | 92.1% | 69.7% | 24.1% | 111% | 101% | 118% | 97% | 63.8% | 23.6% | 111% | 97.9% | 113% | viability, T/C [16]: 102%; viability, T/C [17]: 70.8%; viability, T/C [18]: 23.4%; viability, T/C [19]: 96%; viability, T/C [20]: 89.8%; viability, T/C [21]: 102%; viability, T/C [22]: 79.5%; viability, T/C [23]: 54.1%; viability, T/C [24]: 22.4%; viability, T/C [25]: 96.5%; viability, T/C [26]: 98.9%; viability, T/C [27]: 91.1%; viability, T/C [28]: 79.7%; viability, T/C [29]: 58.6%; viability, T/C [30]: 14.8% |
